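48-hour exposure; five concentrations; linearly interpolated endpoints. The concentration for full growth arrest is given as TGI.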
These molecules were tested on 786-0 renal (assay: inhibition of tumour cell growth, NCI panel, 48 h).
C=C1C(=O)O[C@@H]2C[C@@H]3[C@]4(CC[C@]5(C)[C@@H]([C@H](C)CC/C=C(\C)C=O)CC[C@@]35C)C[C@]4(CCC(=O)OC)[C@H]12 gave a TGI of 3.23 µM.
With CSc1ccc(NC(=O)C2CCCCC2C(=O)O)cc1 (centres undefined) the TGI was greater than 100 µM.
With CCCCCOc1ccc(Nc2c(O)c3c(c(O)c2Cl)C(=O)C=CC3=O)cc1 the TGI was greater than 10 µM.
In the case of CCOC(=O)Oc1ccc(C(CNC(C)C)OC(=O)OCC)cc1OC(=O)OCC (centres undefined), the TGI is reported as greater than 100 µM.

Each molecule was assayed on A498 renal (assay: inhibition of tumour cell growth, NCI panel, 48 h).
In the case of C=C1C(=O)O[C@@H]2C[C@@H]3[C@]4(CC[C@]5(C)[C@@H]([C@H](C)CC/C=C(\C)C=O)CC[C@@]35C)C[C@]4(CCC(=O)OC)[C@H]12, the TGI is reported as 5.33 µM.
Molecule CSc1ccc(NC(=O)C2CCCCC2C(=O)O)cc1 (centres undefined) has a TGI greater than 100 µM.
CCCCCOc1ccc(Nc2c(O)c3c(c(O)c2Cl)C(=O)C=CC3=O)cc1 showed a TGI greater than 10 µM.
For CCOC(=O)Oc1ccc(C(CNC(C)C)OC(=O)OCC)cc1OC(=O)OCC (centres undefined), the TGI was greater than 100 µM.

The molecules below were run on A549 NSCLC (assay: inhibition of tumour cell growth, NCI panel, 48 h).
Work on C=C1C(=O)O[C@@H]2C[C@@H]3[C@]4(CC[C@]5(C)[C@@H]([C@H](C)CC/C=C(\C)C=O)CC[C@@]35C)C[C@]4(CCC(=O)OC)[C@H]12 yielded a TGI of 13.9 µM.
For CSc1ccc(NC(=O)C2CCCCC2C(=O)O)cc1 (centres undefined), the TGI was greater than 100 µM.
For CCCCCOc1ccc(Nc2c(O)c3c(c(O)c2Cl)C(=O)C=CC3=O)cc1, the TGI was greater than 10 µM.
CCOC(=O)Oc1ccc(C(CNC(C)C)OC(=O)OCC)cc1OC(=O)OCC (centres undefined) gave a TGI greater than 100 µM.

The molecules below were run on ACHN renal (assay: inhibition of tumour cell growth, NCI panel, 48 h).
C=C1C(=O)O[C@@H]2C[C@@H]3[C@]4(CC[C@]5(C)[C@@H]([C@H](C)CC/C=C(\C)C=O)CC[C@@]35C)C[C@]4(CCC(=O)OC)[C@H]12 gave a TGI of 3.89 µM.
CSc1ccc(NC(=O)C2CCCCC2C(=O)O)cc1 (centres undefined) gave a TGI greater than 100 µM.
Work on CCCCCOc1ccc(Nc2c(O)c3c(c(O)c2Cl)C(=O)C=CC3=O)cc1 yielded a TGI greater than 10 µM.
CCOC(=O)Oc1ccc(C(CNC(C)C)OC(=O)OCC)cc1OC(=O)OCC (centres undefined) showed a TGI greater than 100 µM.

Each molecule was assayed on BT-549 breast (assay: inhibition of tumour cell growth, NCI panel, 48 h).
In the case of C=C1C(=O)O[C@@H]2C[C@@H]3[C@]4(CC[C@]5(C)[C@@H]([C@H](C)CC/C=C(\C)C=O)CC[C@@]35C)C[C@]4(CCC(=O)OC)[C@H]12, the TGI is reported as 5.01 µM.
CSc1ccc(NC(=O)C2CCCCC2C(=O)O)cc1 (centres undefined) gave a TGI greater than 100 µM.
In the case of CCCCCOc1ccc(Nc2c(O)c3c(c(O)c2Cl)C(=O)C=CC3=O)cc1, the TGI is reported as greater than 6.94 µM.
CCOC(=O)Oc1ccc(C(CNC(C)C)OC(=O)OCC)cc1OC(=O)OCC (centres undefined) showed a TGI greater than 100 µM.

These molecules were tested on CAKI-1 renal (assay: inhibition of tumour cell growth, NCI panel, 48 h).
Work on C=C1C(=O)O[C@@H]2C[C@@H]3[C@]4(CC[C@]5(C)[C@@H]([C@H](C)CC/C=C(\C)C=O)CC[C@@]35C)C[C@]4(CCC(=O)OC)[C@H]12 yielded a TGI of 6.7 µM.
Work on CSc1ccc(NC(=O)C2CCCCC2C(=O)O)cc1 (centres undefined) yielded a TGI greater than 100 µM.
CCCCCOc1ccc(Nc2c(O)c3c(c(O)c2Cl)C(=O)C=CC3=O)cc1 showed a TGI greater than 10 µM.
Molecule CCOC(=O)Oc1ccc(C(CNC(C)C)OC(=O)OCC)cc1OC(=O)OCC (centres undefined) has a TGI greater than 100 µM.

Each molecule was assayed on CCRF-CEM leukemia (assay: inhibition of tumour cell growth, NCI panel, 48 h).
With C=C1C(=O)O[C@@H]2C[C@@H]3[C@]4(CC[C@]5(C)[C@@H]([C@H](C)CC/C=C(\C)C=O)CC[C@@]35C)C[C@]4(CCC(=O)OC)[C@H]12 the TGI was 0.617 µM.
With CSc1ccc(NC(=O)C2CCCCC2C(=O)O)cc1 (centres undefined) the TGI was greater than 100 µM.
With CCCCCOc1ccc(Nc2c(O)c3c(c(O)c2Cl)C(=O)C=CC3=O)cc1 the TGI was greater than 10 µM.
CCOC(=O)Oc1ccc(C(CNC(C)C)OC(=O)OCC)cc1OC(=O)OCC (centres undefined) gave a TGI greater than 100 µM.

What follows are molecules tested on COLO 205 colon (assay: inhibition of tumour cell growth, NCI panel, 48 h).
Work on C=C1C(=O)O[C@@H]2C[C@@H]3[C@]4(CC[C@]5(C)[C@@H]([C@H](C)CC/C=C(\C)C=O)CC[C@@]35C)C[C@]4(CCC(=O)OC)[C@H]12 yielded a TGI of 5.64 µM.
With CSc1ccc(NC(=O)C2CCCCC2C(=O)O)cc1 (centres undefined) the TGI was greater than 100 µM.
For CCCCCOc1ccc(Nc2c(O)c3c(c(O)c2Cl)C(=O)C=CC3=O)cc1, the TGI was greater than 8.02 µM.
Work on CCOC(=O)Oc1ccc(C(CNC(C)C)OC(=O)OCC)cc1OC(=O)OCC (centres undefined) yielded a TGI greater than 100 µM.

What follows are molecules tested on DU-145 prostate (assay: inhibition of tumour cell growth, NCI panel, 48 h).
Molecule C=C1C(=O)O[C@@H]2C[C@@H]3[C@]4(CC[C@]5(C)[C@@H]([C@H](C)CC/C=C(\C)C=O)CC[C@@]35C)C[C@]4(CCC(=O)OC)[C@H]12 has a TGI of 3.31 µM.
Molecule CSc1ccc(NC(=O)C2CCCCC2C(=O)O)cc1 (centres undefined) has a TGI greater than 100 µM.
Molecule CCCCCOc1ccc(Nc2c(O)c3c(c(O)c2Cl)C(=O)C=CC3=O)cc1 has a TGI greater than 10 µM.
CCOC(=O)Oc1ccc(C(CNC(C)C)OC(=O)OCC)cc1OC(=O)OCC (centres undefined) showed a TGI greater than 100 µM.

Each molecule was assayed on EKVX NSCLC (assay: inhibition of tumour cell growth, NCI panel, 48 h).
With C=C1C(=O)O[C@@H]2C[C@@H]3[C@]4(CC[C@]5(C)[C@@H]([C@H](C)CC/C=C(\C)C=O)CC[C@@]35C)C[C@]4(CCC(=O)OC)[C@H]12 the TGI was 7.55 µM.
CSc1ccc(NC(=O)C2CCCCC2C(=O)O)cc1 (centres undefined) gave a TGI greater than 100 µM.
With CCCCCOc1ccc(Nc2c(O)c3c(c(O)c2Cl)C(=O)C=CC3=O)cc1 the TGI was greater than 10 µM.
For CCOC(=O)Oc1ccc(C(CNC(C)C)OC(=O)OCC)cc1OC(=O)OCC (centres undefined), the TGI was greater than 100 µM.

The molecules below were run on HCC-2998 colon (assay: inhibition of tumour cell growth, NCI panel, 48 h).
C=C1C(=O)O[C@@H]2C[C@@H]3[C@]4(CC[C@]5(C)[C@@H]([C@H](C)CC/C=C(\C)C=O)CC[C@@]35C)C[C@]4(CCC(=O)OC)[C@H]12 showed a TGI of 4.1 µM.
Work on CSc1ccc(NC(=O)C2CCCCC2C(=O)O)cc1 (centres undefined) yielded a TGI greater than 100 µM.
CCCCCOc1ccc(Nc2c(O)c3c(c(O)c2Cl)C(=O)C=CC3=O)cc1 showed a TGI greater than 7.84 µM.
For CCOC(=O)Oc1ccc(C(CNC(C)C)OC(=O)OCC)cc1OC(=O)OCC (centres undefined), the TGI was greater than 100 µM.

What follows are molecules tested on HCT-116 colon (assay: inhibition of tumour cell growth, NCI panel, 48 h).
C=C1C(=O)O[C@@H]2C[C@@H]3[C@]4(CC[C@]5(C)[C@@H]([C@H](C)CC/C=C(\C)C=O)CC[C@@]35C)C[C@]4(CCC(=O)OC)[C@H]12 gave a TGI of 2.03 µM.
Molecule CSc1ccc(NC(=O)C2CCCCC2C(=O)O)cc1 (centres undefined) has a TGI greater than 100 µM.
Molecule CCCCCOc1ccc(Nc2c(O)c3c(c(O)c2Cl)C(=O)C=CC3=O)cc1 has a TGI greater than 10 µM.
CCOC(=O)Oc1ccc(C(CNC(C)C)OC(=O)OCC)cc1OC(=O)OCC (centres undefined) showed a TGI greater than 100 µM.

Each molecule was assayed on HCT-15 colon (assay: inhibition of tumour cell growth, NCI panel, 48 h).
C=C1C(=O)O[C@@H]2C[C@@H]3[C@]4(CC[C@]5(C)[C@@H]([C@H](C)CC/C=C(\C)C=O)CC[C@@]35C)C[C@]4(CCC(=O)OC)[C@H]12 showed a TGI of 3.71 µM.
CSc1ccc(NC(=O)C2CCCCC2C(=O)O)cc1 (centres undefined) gave a TGI greater than 100 µM.
In the case of CCCCCOc1ccc(Nc2c(O)c3c(c(O)c2Cl)C(=O)C=CC3=O)cc1, the TGI is reported as 3.93 µM.
CCOC(=O)Oc1ccc(C(CNC(C)C)OC(=O)OCC)cc1OC(=O)OCC (centres undefined) gave a TGI greater than 100 µM.

These molecules were tested on HL-60(TB) leukemia (assay: inhibition of tumour cell growth, NCI panel, 48 h).
C=C1C(=O)O[C@@H]2C[C@@H]3[C@]4(CC[C@]5(C)[C@@H]([C@H](C)CC/C=C(\C)C=O)CC[C@@]35C)C[C@]4(CCC(=O)OC)[C@H]12 gave a TGI of 1.29 µM.
Work on CSc1ccc(NC(=O)C2CCCCC2C(=O)O)cc1 (centres undefined) yielded a TGI greater than 100 µM.
CCCCCOc1ccc(Nc2c(O)c3c(c(O)c2Cl)C(=O)C=CC3=O)cc1 showed a TGI of 3.79 µM.
With CCOC(=O)Oc1ccc(C(CNC(C)C)OC(=O)OCC)cc1OC(=O)OCC (centres undefined) the TGI was 98.5 µM.

These molecules were tested on HOP-62 NSCLC (assay: inhibition of tumour cell growth, NCI panel, 48 h).
C=C1C(=O)O[C@@H]2C[C@@H]3[C@]4(CC[C@]5(C)[C@@H]([C@H](C)CC/C=C(\C)C=O)CC[C@@]35C)C[C@]4(CCC(=O)OC)[C@H]12 showed a TGI of 4.21 µM.
Work on CSc1ccc(NC(=O)C2CCCCC2C(=O)O)cc1 (centres undefined) yielded a TGI greater than 100 µM.
Molecule CCCCCOc1ccc(Nc2c(O)c3c(c(O)c2Cl)C(=O)C=CC3=O)cc1 has a TGI greater than 10 µM.

Source: PubChem BioAssay (NCI)
